Patent US9028856B2, “Synergistic pesticide compositions” (priority 2008, dated 2015)

What was measured:
[1] = format: physicochemical; details: classified from Log P
Description: As used herein, a “partition coefficient” is defined as the ratio of concentrations of an un-ionized compound between solutions of water and octanol. To measure the partition coefficient of ionizable solutes, the pH of the aqueous phase is adjusted such that the predominant form of the compound is un-ionized. The logarithm of the ratio of the concentrations of the un-ionized solute in the solvents is referred to herein as log P or log K ow.
As noted herein, the octanol-water partition coefficient may be used to identify the cuticular penetration of a particular active ingredient. One factor in the relative speed through which any insecticide acts is the insecticide's ability to cross the insect cuticle. A determining factor for cuticle penetration is Log K ow, also known as Log P. Log K ow (Log P) is the octanol-water partition coefficient for a neutral molecule. Log P is used hereinfurther, but, as noted above, the term is synonymous with Log K ow. As previously noted, the cuticular penetration of any particular active ingredient as against a plant cuticle is not indicative of that same active ingredient's ability to penetrate an insect cuticle.
The cuticular penetration of a compound is classified as “INTERMEDIATE” when the Log P value is between about 2.0 and about 4.0.

[2] = octanol-water partition coefficient (Log K ow), Table 1; cited from earlier work
[3] = test system: tropical house mosquito Culex quinquefasciatus (adults, 3 days old); assay: Efficacy of formulations on surfaces (glazed/unglazed tiles, plywood), ten 3 day old mosquitoes, 3 min exposure; format: in vivo; details: 0.002% = 1 mg DTM/m^2 on glazed tiles; EC formulation; 3 minutes exposure
Procedure: The ingredients were diluted in acetone to give a concentration which corresponds to the desired quantity of a.i./m^2. A 1 ml quantity of the solution was applied by pipette onto the 15 cm×15 cm surfaces without treating the outer edge of 1 cm.
(§1) Ten 3 day old Culex quinquefasciatus mosquitoes were exposed to each treatment for 3 minutes under a perforated petri dish, and then a clean untreated white paper index card was moved between treated surface and petri dish. A water-soaked cotton pad was applied immediately after.
Each test consisted of three replicates (three batches of ten mosquitoes were exposed for three minutes to the same surface, each one hour later), of which the mean values are calculated.
The test insects were Culex quinquefasciatus (adults, 3 days old). The compositions were evaluated for their ability to provide effective knock down after 3, 9, 15, and 30 minutes, 1, 2, 3, 4 and 24 hours (mortality). The experiments were performed in triplicate on glazed tile, but not repeated on wood.
Test Insects are Culex quinquefasciatus (adults, 3 days old). The Application provides the technical compounds were dissolved in acetone and applied as 1 ml solutions onto glazed tiles (15 cm×15 cm). An evaluation is provided at knock down after 3, 9, 15, and 30 minutes, 1, 2, 3, 4 and 24 hours (mortality). There are 3 replicates.
Test Insects: Culex quinquefasciatus (adults, 3 days old)
Application: The technical compounds were dissolved in acetone and applied as 1 ml solutions onto glazed tiles (15 cm×15 cm).
Evaluation: Knock down after 3, 9, 15, and 30 minutes, 1, 2, 3, 4 and 24 hours (mortality) […]
Application: The active ingredients were applied as 1 ml acetone solutions onto glazed tiles (15 cm×15 cm) […]
as §1, with “For the mosquitoes, the USDA Petri Dish Method is used. Ten” for “Ten”, “are” for “were”, “dish” for “dish,”, “is” for “was”, “after. […]” for “after.”

[4] = test system: Musca domestica, susceptible strain WHO(N); assay: Efficacy of formulations on surfaces (glazed/unglazed tiles), house flies, continuous exposure; format: in vivo; details: Table 114; 0.002% = 1 mg DTM/m^2 on glazed tiles; EC formulation; continuous exposure
Procedure: A flat fan nozzle (type SS 8003-E) in a spray cabin was moved automatically over a defined area where the solutions were sprayed very evenly onto the surfaces. The formulation was mixed with water to give a concentration which corresponded to the desired quantity of a.i./m^2. A defined quantity of this solution was sprayed onto the area (nominal 350 liter/ha=0.77 ml per surface).
(§2) All surfaces were provided with talcum-coated glass rings (diameter 9.5 cm, height 5.5 cm) one day later.
The test insects were anesthetized with CO2, 20 individuals were placed onto the treated surfaces and the glass ring was covered with wire gauze ring.
Knock down was determined after 15 and 30′, 1, 2, 4 and 6 hours, mortality after 1 day exposure.
(§3) Each test consisted of at least one replicate and any additional replicates are noted.
(§4) Test Insects: House flies (Musca domestica) of both sexes, susceptible strain WHO(N) and resistant strain Reichswald
(§5) Evaluation: Mortality was evaluated cumulatively at different times. […]
(§6) Test Insects: Culex quinquefasciatus (adults) (3 minutes exposure time according to USDA Petri Dish Method), Musca domestica (adults), susceptible and resistant strain, Blattella germanica (males), Cimex lectularius (adults) (all: continuous exposure time)
(§7) Application: The EC formulation (diluted with water 1:9) were applied as 0.85 ml solutions onto glazed tiles (15 cm×15 cm)
(§8) Evaluation: Knock down after 15, and 30 minutes, 1, 2, 3, 4, 6 and 24 hours (mortality)
(§9) Test Insects: Culex quinquefasciatus (adults, susceptible) (3 minutes exposure time according to USDA Petri Dish Method), Musca domestica (adults, susceptible and resistant), Blattella germanica (males, susceptible) (both: continuous exposure time)
(§10) Formulations: Insecticide with or without 10% Compound A (as EC), to be diluted with water (1 part formulation+9 parts water)
Evaluation: Knock down after 3, 9 (mosquitoes only), 15, and 30 minutes, 1, 2, 3, 4 and 24 hours (mortality) […]

[5] = test system: Musca domestica, resistant strain Reichswald; assay: as above; format: in vivo; details: Table 115; 0.002% = 1 mg DTM/m^2 on glazed tiles; EC formulation; continuous exposure
Procedure: as §2
(§11) The test insects were anesthetized with CO2, 20 individuals were placed onto the treated surfaces and the glass ring was covered with wire gauze ring. […]
as §3, §4, §5, §6, §7

[6] = test system: Blattella germanica (males, susceptible); assay: Efficacy of EC formulations on glazed/unglazed tiles, continuous exposure; format: in vivo; details: 0.002% = 1 mg DTM/m^2 on glazed tiles, EC formulation
Procedure: as §2, §11
Each test consisted of at least one replicate and any additional replicates are noted. […]
as §9, §10
Application: 1 ml of the diluted formulations was applied by pipette onto glazed tiles (15×15 cm)
(§12) Evaluation: Knock down after 3, 9 (mosquitoes only), 15, and 30 minutes, 1, 2, 3, 4 and 24 hours (mortality)

[7] = test system: Cimex lectularius (adults); assay: Efficacy on glazed tiles (acetone solutions or EC formulations), continuous exposure; format: in vivo; details: on tiles, insecticide alone (imidacloprid 50 mg/m^2, Bendiocarb 50 mg/m^2, Ethiprole 10 mg/m^2, DTM 1 mg/m^2), no Compound A
Procedure: as §6, §7, §8
Test Insects: Culex quinquefasciatus (adults) (3 minutes exposure time according to USDA Petri Dish Method), Cimex lectularius (adults), Acheta domesticus (middle nymphs) (both: continuous exposure time)
Application: The active ingredients were applied as 1 ml acetone solutions onto glazed tiles (15 cm×15 cm)
as §12
Test Insects: Culex quinquefasciatus (adults) (3 minutes exposure time according to USDA Petri Dish Method), Cimex lectularius (adults), (continuous exposure time)
Test Insects: Cimex lectularius, Culex quinquefasciatus, Musca domestica (all adults, susceptible strains)
Application: The active ingredients were applied as 1 ml acetone solutions onto glazed tiles (15 cm×15 cm), continuous exposure time

## O=C(NC(=O)c1c(F)cccc1F)Nc1cc(Cl)c(OC(F)(F)C(F)C(F)(F)F)c(Cl)c1F (stereo not drawn) [noviflumuron]
[1]
  Likelihood of Direct Insect Cuticular Penetration: Fast (classified as “FAST” when it has a Log P value of about >4.0)
[2]
  Log P: 4.9

## Cc1c(COC(=O)[C@@H]2[C@H](/C=C(\Cl)C(F)(F)F)C2(C)C)cccc1-c1ccccc1 (racemic) [bifenthrin]
[1]
  Likelihood of Direct Insect Cuticular Penetration: Fast (classified as “FAST” when it has a Log P value of about >4.0)
[2]
  Log P: 6.0

## CCOC(=O)CC(SP(=S)(OC)OC)C(=O)OCC (stereo not drawn) [malathion]
[1]
  Likelihood of Direct Insect Cuticular Penetration: Intermediate (classified as “INTERMEDIATE” when the Log P value is between about 2.0 and about 4.0)
[2]
  Log P: 2.7

## O=C(NC(=O)c1ccccc1Cl)Nc1ccc(OC(F)(F)F)cc1 [triflumuron]
[1]
  Likelihood of Direct Insect Cuticular Penetration: Fast (classified as “FAST” when it has a Log P value of about >4.0)
[2]
  Log P: 4.9

## CCc1nn(C)c(C(=O)NCc2ccc(C(C)(C)C)cc2)c1Cl [tebufenpyrad]
[1]
  Likelihood of Direct Insect Cuticular Penetration: Fast (classified as “FAST” when it has a Log P value of about >4.0)
[2]
  Log P: 4.9

## spiromesifen
[1]
  Likelihood of Direct Insect Cuticular Penetration: Fast (classified as “FAST” when it has a Log P value of about >4.0)
[2]
  Log P: 4.6

## abamectin
[1]
  Likelihood of Direct Insect Cuticular Penetration: Fast (classified as “FAST” when it has a Log P value of about >4.0)
[2]
  Log P: 4.4

## CC(COc1ccc(Oc2ccccc2)cc1)Oc1ccccn1 (stereo not drawn) [pyriproxifen]
[1]
  Likelihood of Direct Insect Cuticular Penetration: Fast (classified as “FAST” when it has a Log P value of about >4.0)
[2]
  Log P: 5.4

## spinosad
[1]
  Likelihood of Direct Insect Cuticular Penetration: Intermediate-Fast
[2]
  Log P: 2.8-5.2

## CS/C(C)=N\OC(=O)N(C)SN(C)C(=O)O/N=C(\C)SC [thiodicarb]
[1]
  Likelihood of Direct Insect Cuticular Penetration: Slow (classified as “SLOW” when the compound has a Log P value of about <2.0)
[2]
  Log P: 1.6

## CN/C(=N\[N+](=O)[O-])NCc1cnc(Cl)s1 [clothianidin]
[1]
  Likelihood of Direct Insect Cuticular Penetration: Slow (classified as “SLOW” when the compound has a Log P value of about <2.0)
[2]
  Log P: 0.7

## N#Cc1ccc(CC(=NNC(=O)Nc2ccc(OC(F)(F)F)cc2)c2cccc(C(F)(F)F)c2)cc1 (mixture of isomers) [metaflumizone]
[1]
  Likelihood of Direct Insect Cuticular Penetration: Fast (classified as “FAST” when it has a Log P value of about >4.0)
[2]
  Log P: 5.1

## CNC(=O)Oc1cccc2ccccc12 [carbaryl]
[1]
  Likelihood of Direct Insect Cuticular Penetration: Intermediate (classified as “INTERMEDIATE” when the Log P value is between about 2.0 and about 4.0)
[2]
  Log P: 2.8

## pyrethrin
[1]
  Likelihood of Direct Insect Cuticular Penetration: Fast (classified as “FAST” when it has a Log P value of about >4.0)
[2]
  Log P: 4.3

## O=C(NC(=O)c1c(F)cccc1F)Nc1cc(Cl)c(OC(F)(F)C(F)F)c(Cl)c1 [hexaflumuron]
[1]
  Likelihood of Direct Insect Cuticular Penetration: Fast (classified as “FAST” when it has a Log P value of about >4.0)
[2]
  Log P: 5.6

## COC(=O)N(C(=O)N1CO[C@@]2(C(=O)OC)Cc3cc(Cl)ccc3C2=N1)c1ccc(OC(F)(F)F)cc1 [indoxacarb]
[1]
  Likelihood of Direct Insect Cuticular Penetration: Fast (classified as “FAST” when it has a Log P value of about >4.0)
[2]
  Log P: 4.6

## CC1(C)[C@H](C(=O)O[C@H](C#N)c2cccc(Oc3ccccc3)c2)[C@@H]1C=C(Br)Br [DTM]
[3]
  % KD and Mortality 15′: 0%
  % KD and Mortality 30′: 0%
  % KD and Mortality 1 h: 10%
  % KD and Mortality 2 h: 10%
  % KD and Mortality 3 h: 10%
  % KD and Mortality 4 h: 10%
  % KD and Mortality 6 h: 20%
  % KD and Mortality 24 h: 80%
[4]
  % KD and Mortality 15′: 10%
  % KD and Mortality 30′: 85%
  % KD and Mortality 1 h: 95%
  % KD and Mortality 2 h: 100%
  % KD and Mortality 3 h: 100%
  % KD and Mortality 4 h: 100%
  % KD and Mortality 6 h: 100%
  % KD and Mortality 24 h: 100%
[5]
  % KD and Mortality 15′: 0%
  % KD and Mortality 30′: 0%
  % KD and Mortality 1 h: 0%
  % KD and Mortality 2 h: 0%
  % KD and Mortality 3 h: 0%
  % KD and Mortality 4 h: 0%
  % KD and Mortality 6 h: 0%
  % KD and Mortality 24 h: 5%
[6]
  % KD and Mortality 15′: 0%
  % KD and Mortality 30′: 40%
  % KD and Mortality 1 h: 100%
  % KD and Mortality 2 h: 100%
  % KD and Mortality 3 h: 100%
  % KD and Mortality 4 h: 100%
  % KD and Mortality 6 h: 100%
  % KD and Mortality 24 h: 100%
[7]; 15′
  % KD and Mortality: 0%
[7]; 30′
  % KD and Mortality: 0%
[7]; 1 h
  % KD and Mortality: 0%
[7]; 2 h
  % KD and Mortality: 10%
[7]; 3 h
  % KD and Mortality: 80%
[7]; 4 h
  % KD and Mortality: 100%
[7]; 6 h
  % KD and Mortality: 100%
[7]; 24 h
  % KD and Mortality: 100%
